From patent publication US8889709B2, “Use of isoQC inhibitors in the treatment and prevention of inflammatory diseases or conditions” (Probiodrug AG, priority 2006, dated 2014)
Read-outs that look alike come from different tables or passages of the source. One block for each compound: values may come before it. Peptide text beside a SMILES is read from it.

Tests used:
[1] = test system: Thioglycollate-induced peritonitis in C57/Bl6J mice; assay: Thioglycollate-induced peritonitis in C57/Bl6J wild type mice; assay type: in vivo, mouse
Method: C57/Bl6J mice were purchased from Charles River Laboratories (Kisslegg, Germany). For each experiment, the mice were age- and sex-matched. An intraperitoneal injection of 25 ml/kg body weight of sterile 8% (w/v) thioglycollate (Sigma-Aldrich) was used to induce peritonitis. 30 min before the thioglycollate-stimulus, animals were injected with different doses of isoQC-inhibitor isoQC-I. For lavage of the peritoneum, the animals were anesthetized using 2% isofluran. The peritoneal exudates were collected by washing the peritoneum with 8 ml of sterile PBS 4 h after thioglycollate injection. Cells of 1 ml lavage fluid were collected by centrifugation (300 g, 10 min) and stained according to the manufacturer's instructions for BD Trucount tubes (BD Trucount tubes; catalog no. 340334; BD Biosciences, Heidelberg, Germany). Cells were blocked with CD16/32 (Caltag) at 4° C. for 15 min. and stained with 7/4-FITC (Serotec, Dusseldorf, Germany)/Ly6G-PE (Miltenyi, Bergisch Gladbach, Germany) as well as IgG1-PE (BD)/IgG2a-FITC (Miltenyi) as isotype controls at room temperature for 15 min. After staining, erythrocytes were lysed with BD FACSLyse (BD) in the dark at room temperature for 15 min. After washing with PBS, flow cytometric analysis was performed on a BD FACSCalibur (BD) based on 5000 beads per sample as reference standard.

human isoQC [2] = molecular target: T1, human isoQC (Homo sapiens, UniProt Q9NXS2); assay: Inactivation of human isoQC by heterocyclic chelators; assay type: biochemical
Target sequence in this assay (Q9NXS2 whole entry): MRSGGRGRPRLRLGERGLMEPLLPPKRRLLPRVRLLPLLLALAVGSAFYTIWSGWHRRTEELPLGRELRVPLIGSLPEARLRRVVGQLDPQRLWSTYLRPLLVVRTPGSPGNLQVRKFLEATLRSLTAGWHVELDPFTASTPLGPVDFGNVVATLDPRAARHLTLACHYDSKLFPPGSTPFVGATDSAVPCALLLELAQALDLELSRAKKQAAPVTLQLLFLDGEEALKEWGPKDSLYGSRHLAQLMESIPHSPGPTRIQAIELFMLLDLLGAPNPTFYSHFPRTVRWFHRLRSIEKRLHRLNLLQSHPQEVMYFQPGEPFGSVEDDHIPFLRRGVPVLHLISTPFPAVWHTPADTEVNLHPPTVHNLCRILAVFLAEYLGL

mouse-isoQC [3] = molecular target: T2, mouse-isoQC (Mus musculus, UniProt Q8BH73, I74N); assay: Inactivation/reactivation of mouse-isoQC by chelators and metal ions; details: for reactivation of mouse-isoQC apoenzyme: metal added after removal of the chelator
T2 sequence (Q8BH73 61-383 I74N): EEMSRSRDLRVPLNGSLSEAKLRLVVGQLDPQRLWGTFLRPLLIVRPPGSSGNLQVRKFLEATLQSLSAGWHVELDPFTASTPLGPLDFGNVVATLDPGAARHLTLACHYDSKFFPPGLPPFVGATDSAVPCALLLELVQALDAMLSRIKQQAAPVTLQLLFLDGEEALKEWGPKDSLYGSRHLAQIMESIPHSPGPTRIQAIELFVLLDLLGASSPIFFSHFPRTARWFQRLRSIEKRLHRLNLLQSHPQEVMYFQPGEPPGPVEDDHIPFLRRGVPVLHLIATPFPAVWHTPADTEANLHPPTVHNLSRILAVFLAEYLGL
Method: The final dialysis was performed for 5 h. All buffers were prepared in metal-free polystyrene containers. Subsequently, the apoenzyme was centrifuged at 20.000×g for 1 h at 4° C., and the protein concentration was determined by UV absorbance.

human isoQC [4] = molecular target: T1, human isoQC; assay: Inhibitor assay, human isoQC (Ki/IC50, competitive inhibition)
Method: (§4) All measurements were performed with a NovoStar reader for microplates (BMG Labtechnologies) at 30° C. […] Excitation/emission wavelengths were 320/410 nm.

human isoQC [5] = assay: as above; details: isoQC vs human QC
Method: as §4

human QC = human QC (Homo sapiens, UniProt Q16769); assay: Inhibitor assay, human QC (Ki/IC50, competitive inhibition)
Sequence of human QC (Q16769 29-361): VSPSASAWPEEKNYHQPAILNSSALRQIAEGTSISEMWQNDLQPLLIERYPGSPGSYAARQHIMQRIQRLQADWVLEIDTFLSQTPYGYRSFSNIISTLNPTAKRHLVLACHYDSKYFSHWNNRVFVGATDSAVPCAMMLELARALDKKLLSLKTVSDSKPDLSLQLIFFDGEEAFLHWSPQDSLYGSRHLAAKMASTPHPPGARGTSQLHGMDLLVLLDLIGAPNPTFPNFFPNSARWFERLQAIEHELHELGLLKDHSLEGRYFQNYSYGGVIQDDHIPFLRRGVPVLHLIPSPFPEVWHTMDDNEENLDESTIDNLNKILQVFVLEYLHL
Method: as §4

human isoQC [6] = molecular target: T3, human isoQC (Homo sapiens, UniProt Q9NXS2, C369A/I73N); assay: Inhibitor assay, human isoQC (Ki/IC50, competitive inhibition)
T3 sequence (Q9NXS2 48-382 I73N/C369A): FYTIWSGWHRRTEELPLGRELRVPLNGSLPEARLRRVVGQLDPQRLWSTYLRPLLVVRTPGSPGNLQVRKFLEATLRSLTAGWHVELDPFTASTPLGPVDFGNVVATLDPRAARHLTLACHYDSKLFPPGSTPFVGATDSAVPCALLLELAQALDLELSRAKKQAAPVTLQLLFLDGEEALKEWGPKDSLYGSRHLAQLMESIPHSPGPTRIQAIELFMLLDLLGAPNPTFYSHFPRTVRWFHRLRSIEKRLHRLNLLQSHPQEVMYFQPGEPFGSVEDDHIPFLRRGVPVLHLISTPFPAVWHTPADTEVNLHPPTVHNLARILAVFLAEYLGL
Method: as §4

mouse-isoQC [7] = molecular target: T2, mouse-isoQC; assay: Kinetic parameters of conversion of peptide substrates by murine isoQC; assay type: biochemical; design: starting with codon 43 (Glu 43) of the open reading frame (counting from methionine II); yeast alpha-factor secretion signal (N); made in house; host or cells: Pichia pastoris X-33
Method: (§1) Excitation/emission wavelengths were 320/410 nm.
(§2) Excitation/emission wavelengths were 380/460 nm.
(§3) Kinetic data were evaluated using GraFit software.

human isoQC [8] = molecular target: T1, human isoQC; assay: Kinetic evaluation of peptide substrates of human isoQC; assay type: biochemical; design: The cDNA of the mature human isoQC starting with codon 30 (counting from methionine II); His6 (C-His) (C); yeast alpha-factor secretion signal (YSS) (N); made in house; host or cells: Pichia pastoris X-33; details: human isoQC expressed in E. coli BL21 (hisoQCdt)
Method: as §1, §2, §3
Target sequence in this assay (Q9NXS2 48-382): as the sequence (Q9NXS2 48-382 I73N/C369A) above, with N26I, A322C counted along it

human isoQC [9] = molecular target: T3, human isoQC; assay: as above; assay type: biochemical; design: The cDNA of the mature human isoQC starting with codon 30 (counting from methionine II); His6 (C-His) (C); yeast alpha-factor secretion signal (YSS) (N); made in house; host or cells: Pichia pastoris X-33; details: human isoQC expressed in P. pastoris (YSShisoQC)
Method: as §1, §2, §3

Compound: CCCOc1ccc(C2C(=O)NC(=O)N2c2ccc3[nH]cnc3c2)cc1 (racemic) [Example 6, 1-(1H-benzo[d]imidazol-5-yl)-5-(4-propoxyphenyl)imidazolidine-2,4-dione]
infiltrating monocytes in the peritoneum (FACS) ([1]; 6 mg/kg ip): reduction | infiltrating monocytes in the peritoneum (FACS) ([1]; 18 mg/kg ip): reduced the infiltration of monocytes down to baseline values | pGlu-MCP-1 in lavage fluid ([1]; FIG. 25b, different doses): reduction of pGlu-content | infiltrating monocytes in the peritoneum (FACS) ([1]; different doses ip 30 min before thioglycollate, lavage 4 h after): dose-dependent reduction

Compound: c1cnc2c(c1)ccc1cccnc12 [1,10-phenantroline]
inactivation of human isoQC (human isoQC [2]): inactivated | inactivation of mouse-isoQC (mouse-isoQC [3]; dialysis against buffer containing 5 mM 1,10-phenantrolin and 5 mM EDTA): inactivation

Compound: COc1ccc(NC(=S)NCCCn2ccnc2)cc1OC.Cl [1-(3-(1H-imidazol-1-yl)propyl)-3-(3,4-dimethoxyphenyl)thiourea hydrochloride]
Ki (human isoQC [4]): 480 ± 30 nM | Ki (human isoQC [4]; read-out: Ki-value, inhibition of human isoQC-catalyzed conversion of H-Gln-AMC into pGlu-AMC, FIG. 1, Michaelis-Menten model, linear competitive inhibition, inhibitor 0-5 μM): 240 nM | drop in Ki, human isoQC compared with human QC (human isoQC [5]): 10 fold

Compound: Cn1ccnc1 [1-Methylimidazole]
Ki (human QC): 39.7 ± 0.2 µM | Ki (human isoQC [4]): 80000 ± 5000 nM | Ki (human isoQC [6]): 82000 ± 3000 nM

Compound: c1ccc2[nH]cnc2c1 [Benzimidazole]
Ki (human QC; read-out: Ki (μM) hQC, competitive inhibition): 138 ± 4 µM | Ki (human isoQC [4]): 200000 ± 8000 nM | Ki (human isoQC [6]): 250000 ± 5000 nM

Compound: O=C(O)CN(CCN(CC(=O)O)CC(=O)O)CC(=O)O [EDTA]
inactivation of human isoQC (human isoQC [2]): inactivated

Compound: O=C1NC(=O)N(c2ccc3[nH]cnc3c2)C1c1ccc2nsnc2c1 (centres unmarked) [Example 1, 5-(benzo[c][1,2,5]thiadiazol-6-yl)-1-(1H-benzo[d]imidazol-5-yl)imidazolidine-2,4-dione]
IC50 (human isoQC [6]): 3.3 nM | Ki (human isoQC [6]): 1.62 nM

Compound: O=C1NC(=O)N(c2ccc3[nH]cnc3c2)C1c1ccccc1 (centres unmarked) [Example 2, 1-(1H-benzo[d]imidazol-5-yl)-5-phenylimidazolidine-2,4-dione]
IC50 (human isoQC [6]): 29.6 nM | Ki (human isoQC [6]): 16.4 nM

Compound: O=C1NC(=O)N(c2ccc3[nH]cnc3c2)C1c1cc(C(F)(F)F)ccc1F (centres unmarked) [Example 4, 1-(1H-benzo[d]imidazol-5-yl)-5-(2-fluoro-5-(trifluoromethyl)phenyl)imidazolidine-2,4-dione]
IC50 (human isoQC [6]): 150 nM | Ki (human isoQC [6]): 25.8 nM

Compound: O=C1NC(=O)N(c2ccc3[nH]cnc3c2)C1c1cc(F)ccc1Br (centres unmarked) [Example 5, 1-(1H-benzo[d]imidazol-5-yl)-5-(2-bromo-5-fluorophenyl)imidazolidine-2,4-dione]
IC50 (human isoQC [6]): 66 nM | Ki (human isoQC [6]): 8.27 nM

Compound: O=C1NC(=O)N(c2ccc3[nH]cnc3c2)C1c1ccc(Cl)c(C(F)(F)F)c1 (centres unmarked) [Example 7, 1-(1H-benzo[d]imidazol-5-yl)-5-(4-chloro-3-(trifluoromethyl)phenyl)imidazolidine-2,4-dione]
IC50 (human isoQC [6]): 1400 nM | Ki (human isoQC [6]): 35.2 nM

Compound: COc1ccc(C2C(=O)NC(=O)N2c2ccc3[nH]cnc3c2)cc1O (centres unmarked) [Example 9, 1-(1H-benzo[d]imidazol-5-yl)-5-(3-hydroxy-4-methoxyphenyl)imidazolidine-2,4-dione]
IC50 (human isoQC [6]): 30.3 nM | Ki (human isoQC [6]): 2.66 nM

Compound: O=C1NC(=O)N(c2ccc3[nH]cnc3c2)C1c1cccc(Cl)c1 (centres unmarked) [Example 12, 1-(1H-benzo[d]imidazol-5-yl)-5-(3-chlorophenyl)imidazolidine-2,4-dione]
IC50 (human isoQC [6]): 58 nM | Ki (human isoQC [6]): 10.5 nM

Compound: O=C(O)c1cccc(C(=O)O)n1 [dipicolinic acid]
inactivation of human isoQC (human isoQC [2]): inactivated

Further lines, results first:

IC50 (human isoQC [6]): 52 nM | Ki (human isoQC [6]): 6.71 nM
Compound: O=C1NC(=O)N(c2ccc3[nH]cnc3c2)C1c1ccc(Cl)cc1 (centres unmarked) [Example 13, 1-(1H-benzo[d]imidazol-5-yl)-5-(4-chlorophenyl)imidazolidine-2,4-dione]

IC50 (human isoQC [6]): 40 nM | Ki (human isoQC [6]): 3.07 nM
Compound: O=C1NC(=O)N(c2ccc3[nH]cnc3c2)C1c1ccccc1Cl (centres unmarked) [Example 14, 1-(1H-benzo[d]imidazol-5-yl)-5-(2-chlorophenyl)imidazolidine-2,4-dione]

IC50 (human isoQC [6]): 60 nM | Ki (human isoQC [6]): 12.3 nM
Compound: O=C1NC(=O)N(c2ccc3[nH]cnc3c2)C1c1ccc(F)cc1 (centres unmarked) [Example 15, 1-(1H-benzo[d]imidazol-5-yl)-5-(4-fluorophenyl)imidazolidine-2,4-dione]

IC50 (human isoQC [6]): 57.6 nM | Ki (human isoQC [6]): 4.14 nM
Compound: O=C1NC(=O)N(c2ccc3[nH]cnc3c2)C1c1ccc2c(c1)OCCO2 (centres unmarked) [Example 16, 1-(1H-benzo[d]imidazol-5-yl)-5-(2,3-dihydrobenzo[b][1,4]dioxin-7-yl)imidazolidine-2,4-dione]

IC50 (human isoQC [6]): 166 nM | Ki (human isoQC [6]): 40.9 nM
Compound: O=C1NC(=O)C2(Cc3ccccc3C2)N1c1ccc2[nH]cnc2c1 [Example 32, 3-(1H-benzimidazol-5-yl)-1′,3′-dihydro-2H,5H-spiro[imidazolidine-4,2′-indene]-2,5-dione]

IC50 (human isoQC [6]): 58.3 nM | Ki (human isoQC [6]): 11.4 nM
Compound: O=C1NC(=S)C(c2ccc(Cl)cc2)N1c1ccc2[nH]cnc2c1 (centres unmarked) [Example 40, 1-(1H-benzo[d]imidazol-5-yl)-5-(4-chlorophenyl)-4-thioxoimidazolidin-2-one]

IC50 (human isoQC [6]): 163 nM | Ki (human isoQC [6]): 34.5 nM
Compound: O=C1NC(=S)C(c2ccc(F)c(F)c2F)N1c1ccc2nc[nH]c2c1 (centres unmarked) [Example 41, 1-(1H-benzo[d]imidazol-5-yl)-5-(2,3,4-trifluorophenyl)-4-thioxoimidazolidin-2-one]

Km (mouse-isoQC [7]): 0.022 ± 0.001 mM | kcat (s^−1) m-isoQC (mouse-isoQC [7]): 6.98 ± 0.35 s⁻¹ | Km (human isoQC [8]): 0.01 ± 0.0009 mM | kcat (s^−1) hisoQCdt (human isoQC [8]): 1.07 ± 0.03 s⁻¹ | Km (human isoQC [9]): 0.03 ± 0.0064 mM | kcat (s^−1) YSShisQC (human isoQC [9]): 3.72 ± 0.44 s⁻¹
Compound: Cc1cc(=O)oc2cc(NC(=O)[C@@H](N)CCC(N)=O)ccc12 [Q-AMC, H-Gln-AMC]

Km (mouse-isoQC [7]): 0.032 ± 0.003 mM | kcat (s^−1) m-isoQC (mouse-isoQC [7]): 17.48 ± 0.97 s⁻¹ | Km (human isoQC [8]): 0.03 ± 0.002 mM | kcat (s^−1) hisoQCdt (human isoQC [8]): 3.37 ± 0.12 s⁻¹ | Km (human isoQC [9]): 0.035 ± 0.0005 mM | kcat (s^−1) YSShisQC (human isoQC [9]): 8.16 ± 0.87 s⁻¹
Compound: NC(=O)CC[C@H](N)C(=O)Nc1ccc2ccccc2c1 [Q-βNA, H-Gln-βNA]

Km (human isoQC [8]): 0.63 ± 0.052 mM | Km (human isoQC [9]): 0.16 ± 0.01 mM
Compound: CC(C)C[C@H](NC(=O)[C@H](CC(=O)O)NC(=O)[C@H](CCC(=O)O)NC(=O)[C@@H](N)CCC(N)=O)C(=O)O [QEDL] (H-QEDL-OH)

Km (human isoQC [8]): 0.7 ± 0.13 mM | Km (human isoQC [9]): 0.61 ± 0.064 mM
Compound: NC(=O)CC[C@H](N)C(=O)N[C@@H](CCC(=O)O)C(=O)O [QE] (H-Gln-Glu-OH)

Km (human isoQC [8]): 0.11 ± 0.016 mM | Km (human isoQC [9]): 0.104 ± 0.025 mM
Compound: C[C@H](NC(=O)[C@H](Cc1ccccc1)NC(=O)[C@@H](N)CCC(N)=O)C(=O)O [QFA] (H-Gln-Phe-Ala-OH)

Km (mouse-isoQC [7]): 0.16 ± 0.01 mM | Km (human isoQC [8]): 0.42 ± 0.04 mM | Km (human isoQC [9]): 0.36 ± 0.047 mM
Compound: NC(=O)CC[C@H](N)C(=O)NCC(=O)O [QG] (H-Gln-Gly-OH)

Km (human isoQC [8]): 0.11 ± 0.027 mM | Km (human isoQC [9]): 0.11 ± 0.007 mM
Compound: NC(=O)CC[C@H](NC(=O)[C@@H](N)CCC(N)=O)C(=O)O [QQ] (H-Gln-Gln-OH)

reactivation of mouse-isoQC apoenzyme (mouse-isoQC [3]): complete reactivation
Compound: O=S(=O)([O-])[O-].[Zn+2] [ZnSO4]

reactivation of mouse-isoQC apoenzyme (mouse-isoQC [3]): No reactivation
Compound: calcium

reactivation of mouse-isoQC apoenzyme (mouse-isoQC [3]): No reactivation
Compound: manganese
